Key:
[1] = in vivo; conditions: male, rat, plasma, iv
Protocol: Male rats (n=3) were given an intravenous 0.5 or 2.0 mg/kg bolus dose of test article dissolved in plasma with 1% DMSO and 2% ethanol (C30 only). Serial blood samples were collected up to 24 hours post-dose. Plasma was harvested from blood samples and stored frozen until sample analysis. Test article plasma concentrations were analyzed by LC/MS/MS.

[2] = tested on: SUM149; assay: Cytotoxicity assay (Version 2, automated, AC50) with/without neutrophil elastase; assay type: cell-based; conditions: Version 2, activity concentration at −50%
How it was run: (§1)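 Automated run. Compound ± 10 nM neutrophil elastase, 72 h, 37 °C; MTT readout. AC50 defined as concentration at −50% vs DMSO (0%) and cell-free wells (−100%).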

[3] = tested on: SUM149; assay: Cytotoxicity in vitro (MTT) in presence/absence of elastase; assay type: cell-based; conditions: 72 h
Protocol: (§2) Cultivation of cells was performed according to standard procedures with the media recommended by the provider. The cells, in a total volume of 100 μL, were seeded in a 96-well plate with a white bottom (#3610). After a 24 h incubation period at 37° C. and […], the medium was exchanged by adding 90 μL fresh medium. The treatment started by adding the test compound in 10 μL of culture medium to the cells in triplicates. Concentrations ranging from 10^−5 M to 10^−13 M were chosen. Two identically treated sets of samples were prepared. One set was treated with the test compound alone, whereas to the second set the compound and 10 nM elastase was added followed by a 72 h incubation period at 37° C. and […]. The proliferation was detected using the MTT assay (ATCC). At the end of the incubation period the MTT reagent was added to all samples for 4 h. Lysis of the cells followed by addition of the detergent was done overnight. The formed dye was detected at 570 nm. The proliferation of untreated but otherwise identically handled cells was define as the 100% value.

[4] = tested on: 786-O; assay: as above; assay type: cell-based, human; conditions: 72 h
Protocol: as §2

[5] = tested on: HT29; assay: as above; assay type: cell-based, human; conditions: 72 h
Protocol: as §2

[6] = tested on: NCI H292; assay: as above; assay type: cell-based, human; conditions: 72 h
Protocol: as §2

[7] = tested on: 786-O; assay: Cytotoxicity assay (Version 2, automated, AC50) with/without neutrophil elastase; assay type: cell-based, human; conditions: Version 2, activity concentration at −50%
How it was run: as §1

[8] = tested on: HT29; assay: as above; assay type: cell-based, human; conditions: Version 2, activity concentration at −50%
How it was run: as §1

[9] = tested on: NCI H292; assay: as above; assay type: cell-based, human; conditions: Version 2, activity concentration at −50%
How it was run: as §1

[10] = SUM149, with (+) neutrophil elastase
[11] = SUM149, without (−) neutrophil elastase
[12] = SUM149, with (+) 10 nM neutrophil elastase
[13] = with (+) 10 nM neutrophil elastase
[14] = without (−) neutrophil elastase
[15] = HT29, with (+) 10 nM neutrophil elastase
[16] = HT29, without (−) neutrophil elastase
[17] = NCI H292, with (+) 10 nM neutrophil elastase
[18] = NCI H292, without (−) neutrophil elastase
[19] = HT29, with (+) neutrophil elastase
[20] = NCI H292, with (+) neutrophil elastase

SMILES | AC50 [2, 10] | AC50 [2, 11] | IC50 [3, 12] | IC50 [3, 11] | IC50 [4, 13] | IC50 [4, 14] | IC50 [5, 15] | IC50 [5, 16] | IC50 [6, 17] | IC50 [6, 18] | AC50 ([7]; with (+) neutrophil elastase) | AC50 [7, 14] | AC50 [8, 19] | AC50 [8, 16] | AC50 [9, 20] | AC50 [9, 18] | further results
CCCNC(=O)Nc1cccc(S(=O)(=O)Nc2cccc([C@@H](CC(=O)O)NC(=O)Nc3ccc(NC(=O)NCCOCCOCCOCCC(=O)NCCCC[C@H](NC(=O)CCOCCOCCOCCNC(=O)Nc4ccc(NC(=O)N[C@H](CC(=O)O)c5cccc(NS(=O)(=O)c6cccc(NC(=O)NCCC)c6)c5)cc4)C(=O)NCCOCCOCCOCCC(=O)N[C@@H](CC(=O)O)C(=O)N4CCC[C@H]4C(=O)N[C@H](C(=O)N=S(C)(=O)Cc4cc5cc(c4)OC(C)CCOc4cc(F)ccc4-c4nc(ncc4F)N5)C(C)C)cc3)c2)c1 (relative stereo) [Compound 30] | – | – | – | – | – | – | – | – | – | – | – | – | – | – | – | – | AUC ([1]; 0.5 mg/kg): 50000 to 150000 ng·h/mL; Vd ([1]; 0.5 mg/kg): > 0.1 L/kg; clearance ([1]; 0.5 mg/kg): 0.05 to 0.5 mL/min/kg; half-life ([1]; 0.5 mg/kg): 10 to 20 h
CCCNC(=O)Nc1cccc(S(=O)(=O)Nc2cccc([C@H](CC(=O)O)NC(=O)Nc3ccc(NC(=O)NCCOCCOCCOCCC(=O)N[C@@H](CCCCNC(=O)CCOCCOCCOCCNC(=O)Nc4ccc(NC(=O)N[C@H](CC(=O)O)c5cccc(NS(=O)(=O)c6cccc(NC(=O)NCCC)c6)c5)cc4)C(=O)NCCOCCOCCOCCC(=O)N[C@@H](CC(=O)O)C(=O)N4CCC[C@H]4C(=O)N[C@H](C(=O)N=S(C)(=O)Cc4cc5nc(c4)OCCCOc4cc(F)ccc4-c4cc(ncc4F)N5)C(C)C)cc3)c2)c1 (relative stereo) [Compound 33] | – | – | – | – | – | – | – | – | – | – | – | – | – | – | – | – | AUC ([1]; 2 mg/kg): 50000 to 150000 ng·h/mL; Vd ([1]; 2 mg/kg): > 0.1 L/kg; clearance ([1]; 2 mg/kg): 0.5 to 5 mL/min/kg; half-life ([1]; 2 mg/kg): 10 to 20 h
CCCNC(=O)Nc1cccc(S(=O)(=O)Nc2cccc([C@@H](CC(=O)O)NC(=O)Nc3ccc(NC(=O)NCCOCCOCCOCCC(=O)N[C@@H](CC(=O)O)C(=O)N4CCC[C@H]4C(=O)N[C@H](C(=O)N=[S@](C)(=O)Cc4cc5cc(c4)O[C@H](C)CCOc4cc(F)ccc4-c4nc(ncc4F)N5)C(C)C)cc3)c2)c1 (relative stereo) [Compound 48] | – | – | – | – | – | – | – | – | – | – | – | – | – | – | – | – | AUC ([1]; 0.5 mg/kg): 1000 to 10000 ng·h/mL; Vd ([1]; 0.5 mg/kg): 0.03 to 0.1 L/kg; clearance ([1]; 0.5 mg/kg): > 5 mL/min/kg; half-life ([1]; 0.5 mg/kg): 0.1 to 1 h
CCCNC(=O)Nc1cccc(S(=O)(=O)Nc2cccc([C@@H](CC(=O)O)NC(=O)Nc3ccc(NC(=O)NCCOCCOCCOCCC(=O)N[C@@H](CC(=O)O)C(=O)N4CCC[C@H]4C(=O)N[C@H](C(=O)N=S(C)(=O)Cc4cc5nc(c4)OCCCOc4cc(F)ccc4-c4cc(ncc4F)N5)C(C)C)cc3)c2)c1 (single isomer, unassigned) [Compound 41, disodium 1-{(2S)-2-(carboxylatomethyl)-17-[4-({[(1R)-2-carboxylato-1-{3-[({3-[(propylcarbamoyl)amino]phenyl}sulfonyl)amino]phenyl}ethyl]carbamoyl}amino)anilino]-4,17-dioxo-7,10,13-trioxa-3,16-diazaheptadecan-1-oyl}-L-prolyl-N—[(R*)—{[15,19-difluoro-3,4-dihydro-2H,11H-10,6-(azeno)-12,16-(metheno)-1,5,11,13-benzodioxadiazacyclooctadecin-8-yl]methyl}(methyl)oxido-lambda^6-sulfanylidene]-L-valinamide] | – | – | – | – | – | – | – | – | – | – | – | – | – | – | – | – | AUC ([1]; 2 mg/kg): 1000 to 10000 ng·h/mL; Vd ([1]; 2 mg/kg): > 0.1 L/kg; clearance ([1]; 2 mg/kg): 0.5 to 5 mL/min/kg; half-life ([1]; 2 mg/kg): 10 to 20 h
CCCNC(=O)Nc1cccc(S(=O)(=O)Nc2cccc([C@@H](CC(=O)O)NC(=O)Nc3ccc(NC(=O)N(C)CCN(C)CCN(C)CC(=O)N[C@@H](CC(N)=O)C(=O)N4CCC[C@H]4C(=O)N[C@H](C(=O)N=[S@@](C)(=O)Cc4cc5cc(c4)OCCCCOc4cc(F)ccc4-c4nc(ncc4F)N5)C(C)C)cc3)c2)c1 [Compound 5, N-{2-[{2-[({4-[({(1R)-2-Carboxy-1-[3-({3-[(propylcarbamoyl)amino]benzene-1-sulfonyl}amino)phenyl]ethyl}carbamoyl)amino]phenyl}carbamoyl)(methyl)amino]ethyl} (methyl)amino]ethyl}-N-methylglycyl-L-asparaginyl-L-prolyl-N—[(S)-{[16,20-difluoro-2,3,4,5-tetrahydro-12H-13,17-(azeno)-11,7-(metheno)-1,6,12,14-benzodioxadiazacyclononadecin-9-yl]methyl}(methyl)oxo-lambda^6-sulfanylidene]-L-valinamide] | 11 to 100 nM | > 1000 nM | 1.1 to 10 nM | > 100 nM | ≤ 1 nM | > 100 nM | ≤ 1 nM | > 100 nM | 1.1 to 10 nM | > 100 nM | 11 to 100 nM | > 1000 nM | 11 to 100 nM | > 1000 nM | 11 to 100 nM | 100 to 1000 nM | –
CCCNC(=O)Nc1cccc(S(=O)(=O)Nc2cccc([C@H](CC(=O)O)NC(=O)Nc3ccc(NC(=O)NCCOCCOCCOCCC(=O)N[C@@H](CC(=O)O)C(=O)N4CCC[C@H]4C(=O)N[C@H](C(=O)N=[S@@](C)(=O)Cc4cc5cc(c4)OCCCCOc4cc(F)ccc4-c4nc(ncc4F)N5)C(C)C)cc3)c2)c1 [Compound 14] | 11 to 100 nM | 100 to 1000 nM | ≤ 1 nM | > 100 nM | ≤ 1 nM | > 100 nM | ≤ 1 nM | > 100 nM | 1.1 to 10 nM | > 100 nM | 11 to 100 nM | > 1000 nM | 11 to 100 nM | > 1000 nM | 11 to 100 nM | 100 to 1000 nM | –
CCCNC(=O)Nc1cccc(S(=O)(=O)Nc2cccc([C@@H](CC(=O)O)NC(=O)Nc3ccc(NC(=O)NCCOCCOCCOCCC(=O)NCCCC[C@H](NC(=O)CCOCCOCCOCCNC(=O)Nc4ccc(NC(=O)N[C@H](CC(=O)O)c5cccc(NS(=O)(=O)c6cccc(NC(=O)NCCC)c6)c5)cc4)C(=O)NCCOCCOCCOCCC(=O)N[C@@H](CC(=O)O)C(=O)N4CCC[C@H]4C(=O)N[C@H](C(=O)N=[S@@](C)(=O)Cc4cc5cc(c4)OCCCCOc4cc(F)ccc4-c4nc(ncc4F)N5)C(C)C)cc3)c2)c1 [Compound 18] | ≤ 10 nM | 100 to 1000 nM | ≤ 1 nM | 11 to 100 nM | 1.1 to 10 nM | > 100 nM | ≤ 1 nM | 11 to 100 nM | 1.1 to 10 nM | > 100 nM | 11 to 100 nM | > 1000 nM | 11 to 100 nM | > 1000 nM | 11 to 100 nM | 100 to 1000 nM | –
CCCNC(=O)Nc1cccc(S(=O)(=O)Nc2cccc([C@H](CC(=O)O)NC(=O)Nc3ccc(NC(=O)NCCOCCOCCOCCC(=O)NCCCC[C@H](NC(=O)CCOCCOCCOCCNC(=O)Nc4ccc(NC(=O)N[C@@H](CC(=O)O)c5cccc(NS(=O)(=O)c6cccc(NC(=O)NCCC)c6)c5)cc4)C(=O)NCCOCCOCCOCCC(=O)N[C@@H](CC(=O)O)C(=O)N4CCC[C@H]4C(=O)N[C@H](C(=O)N=[S@@](C)(=O)Cc4cc5cc(c4)OCCCCOc4cc(F)ccc4-c4nc(ncc4F)N5)C(C)C)cc3)c2)c1 [Compound 19] | 100 to 1000 nM | 100 to 1000 nM | ≤ 1 nM | 1.1 to 10 nM | 1.1 to 10 nM | > 100 nM | ≤ 1 nM | 11 to 100 nM | 1.1 to 10 nM | 11 to 100 nM | 100 to 1000 nM | 100 to 1000 nM | 100 to 1000 nM | 100 to 1000 nM | 11 to 100 nM | 100 to 1000 nM | –

Reference: US20240408222A1, “COMPOUNDS, PHARMACEUTICAL COMPOSITIONS, AND METHODS FOR THE TREATMENT, PREVENTION, OR MANAGEMENT OF HYPERPRO[…]” (VINCERX PHARMA GMBH, priority 2021, published 2024)
